Molecules are shown by their SMILES.

These results are taken from patent publication US20100143428A1, “A STABLE GLUTARALDEHYDE COMPLEX” (priority 2006, published 2010).

The assay deals with bacteria. Kind of assay: Residual efficacy on bacterially contaminated surfaces, duration of effect. Format: cell-based. Particulars: "as is". How it is done: Table 1 tabulates results of a residual efficacy test done on the product of the invention (sample number RT14) by the South African Bureau of Standards (SABS) using the European surface test method (1993), to determine the residual efficacy of the sample on bacterially contaminated surfaces.
The surfaces of stainless steel discs (2 cm^2) were seeded with a 0.1 ml bacterial suspension containing 10^7 bacterial cells/ml and thereafter dried at 37° C. for one hour. The 0.1 ml RT14 sample was dropped onto the dried disc, ensuring that the disc was totally covered. After 24 hours, 48 hours, 7 days, 14 days and 30 days respectively, the surfaces were again seeded with a bacterial suspension. After a minute contact time, the stainless steel discs were placed in conical flasks containing 10m1 of a neutralization medium to neutralize the RT14 and the flasks were shaken to dislodge the cells from the discs. Tenfold dilutions of the flask contents were placed onto sterile petri dishes. Nutrient agar was poured onto the petri dishes, mixed with contents, and incubated at 37° C. for 2 days. Colony-forming bacterial cells were counted. Untreated stainless steel discs were used as controls.

For the compound `O=CCCCC=O` [glutaraldehyde], the “duration of effectiveness on bacteria” value is on record as “up to 10 hours”.
